Results published in patent publication US4797400A, “Piperazine compounds and anti-ulcer composition containing the same” (Kanebo, Ltd., priority 1986, dated 1989).
Structures can show the parent of a compound that is named as a salt.

How the values were obtained:
[1] = test system: ethanol-induced gastric ulcer; assay: Inhibitory effect on ethanol-induced gastric ulcer; format: in vivo, male Sprague-Dawley (SD) rats; details: Rattus norvegicus, po, 1 h; p.o.; male SD rats; ethanol (99.5%, 1 ml) orally 30 minutes after test compound; ulcer index after one hour
Method: The compounds of this invention have potent activity for promoting the action of the defensive factor. The activity can be evaluated by the defensive action against ulcer induced by ethanol (e.g. inhibitory effect on ethanol-induced gastric ulcer) [cf. Hara, Nobuyuki et al., Pharmacometrics, 29, 557 (1985)]. […] Inhibitory effect on ethanol-induced gastric ulcer: Male Sprague-Dawley (SD) rats (weighing 180-220 g, 8 weeks age, 16 rats per group) were fasted for 24 hours, and to the rats was orally administered the test compound in the form of a solution in distilled water or a suspension in 1% aqueous gum arabic. After 30 minutes, ethanol (99.5%, 1 ml) was orally administered to the rats in the same manner as described by Robert et al. [cf. Gastroenterology, 77, 433 (1979)]. One hour after the administration of ethanol, the rats were sacrificed under ether anesthesia, and the stomach was removed. Into the stomach was poured 1% formalin (12 ml), and then the stomach was immersed in 1% formalin for 15 minutes. The stomach was cut along the greater curvature, and the length (mm) of each ulcer occured on the fundic mucosa was measured with a dissecting microscope. Sum of the length of ulcers in each rat was used as the ulcer index in each rat. In control rats to which no test compound was administered, the ulcer index was determined likewise, and the mean value (mean ulcer index) was calculated. […] A dose-response curve was drawn based on the ratio thus obtained and the dose of test compounds, and therefrom, the 50% effective dose (ED50) was determined.

[2] = test system: water-immersion stress-induced gastric ulcer; assay: Inhibitory effect on water-immersion stress-induced gastric ulcer; format: in vivo; details: Rattus norvegicus, po; male SD rats; water bath at 23° C., 17 hours
Method: Inhibitory effect on water-immersion stress-induced gastric ulcer: Male SD rats (weighing 190-230 g, 8 weeks age, 16 rats per group) were fasted for 24 hours, and to the rats was orally administered the test compound in the form of a solution in distilled water or a suspension in 1% aqueous gum arabic. After 15 minutes, the rats were immersed vertically to the height of the xiphoid of the rats in water bath at 23° C. within a stress cage in the same manner as described by Takagi et al. [cf. Japanese Journal of Pharmacology, 18, 9 (1968)]. After 17 hours, the rats were sacrificed under ether anesthesia and the stomach was removed. The stomach was treated with formalin and the ulcer index as well as ED50 were determined in the same manner as described in Experiment 1.

[3] = test system: indomethacin-induced gastric ulcer; assay: Inhibitory effect on indomethacin-induced gastric ulcer; format: in vivo; details: Rattus norvegicus, po; male SD rats; indomethacin 30 mg/kg s.c.; ulcer index after 5 hours
Method: Inhibitory effect on indomethacin-induced gastric ulcer: It was done in the same manner as described by Okabe et al. [cf. Digestive Diseases and Science, 28, 1034 (1983)]. That is, male SD rats (weighing 180-220 g, 8 weeks age, 16 rats per group) were fasted for 24 hours, and to the rats was orally administered the test compound in the form of a solution in distilled water or a suspension in 1% aqueous gum arabic. After 15 minutes, to the rats was subcutaneously administered indomethacin (30 mg/kg) in the form of a solution in 3% aqueous sodium hydrogen carbonate solution. After 5 hours, the rats were sacrificed under ether anesthesia and the stomach was removed. The stomach was treated with formalin and the ulcer index as well as ED50 were determined in the same manner as described in Experiment 1.

[4] = Acute toxicity; details: mouse, in vivo, po; male ddY mice; death observed for 7 days; Weil's method
Method: To male ddY mice (weighing 18-22 g, 4 weeks age, […] mice per group) fasted overnight was orally administered the test compound in the form of a solution in distilled water or a suspension in 1% aqueous gum arabic. […] From the number of dead mice, LD50 was determined in the same manner as Weil's method.

COc1ccc(OC(=O)CN2CCN(Cc3ccc(OC)c(OC)c3OC)CC2)cc1.Cl.Cl [Compound 1, 1-[(4-Methoxyphenoxy)carbonylmethyl]-4-(2,3,4-trimethoxybenzyl)piperazine dihydrochloride]
ED50 [1]: 27 mg/kg
ED50 [2]: 88 mg/kg
ED50 [3]: 10 mg/kg
LD50 at 168 h [4]: 4200 mg/kg

COc1ccc(OC(=O)CN2CCN(Cc3cc(OC)c(OC)c(OC)c3)CC2)cc1.O.O=C(O)/C=C/C(=O)O.O=C(O)/C=C/C(=O)O [Compound 2, 1-[(4-Methoxyphenoxy)carbonylmethyl]-4-(3,4,5-trimethoxybenzyl)piperazine difumarate monohydrate]
ED50 [1]: 30 mg/kg
ED50 [2]: 123 mg/kg
ED50 [3]: 11 mg/kg
LD50 at 168 h [4]: 4800 mg/kg

NC[C@H]1CC[C@H](C(=O)Oc2ccc(CCC(=O)O)cc2)CC1 [Reference compound, Cetraxate hydrochloride, reference compound]
ED50 [1]: 112 mg/kg
ED50 [2]: > 1000 mg/kg
ED50 [3]: 361 mg/kg
LD50 at 168 h [4]: > 8000 mg/kg
